Assay results taken from PubChem BioAssay (NCI).
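Tested at 5 concentrations; 48 h exposure; 96-well plates; endpoints linearly interpolated, else capped at highest concentration. The concentration for 50% growth inhibition is given as GI50. Definition used: TGI = concentration required for complete inhibition of growth.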

Columns and labels:
Assay in all cases: inhibition of tumour cell growth, NCI panel, 48 h
LOX IMVI melanoma = test system: LOX IMVI melanoma
UO-31 renal = test system: UO-31 renal
SF-268 CNS = test system: SF-268 CNS
SK-OV-3 ovarian = test system: SK-OV-3 ovarian
SR leukemia = test system: SR leukemia
U251 CNS = test system: U251 CNS
RXF 393 renal = test system: RXF 393 renal
KM12 colon = test system: KM12 colon
NCI-H226 lung = test system: NCI-H226 lung
SK-MEL-5 melanoma = test system: SK-MEL-5 melanoma
A498 renal = test system: A498 renal
MOLT-4 leukemia = test system: MOLT-4 leukemia
PC-3 prostate = test system: PC-3 prostate
HL-60(TB) leukemia = test system: HL-60(TB) leukemia
HT29 colon = test system: HT29 colon
786-0 renal = test system: 786-0 renal
NCI-H23 lung = test system: NCI-H23 lung
SN12C renal = test system: SN12C renal
SK-MEL-2 melanoma = test system: SK-MEL-2 melanoma
NCI-H460 lung = test system: NCI-H460 lung
BT-549 breast = test system: BT-549 breast
IGROV1 ovarian = test system: IGROV1 ovarian
SF-295 CNS = test system: SF-295 CNS
MALME-3M melanoma = test system: MALME-3M melanoma
HCC-2998 colon = test system: HCC-2998 colon
HCT-116 colon = test system: HCT-116 colon
NCI-H522 lung = test system: NCI-H522 lung
SF-539 CNS = test system: SF-539 CNS
COLO 205 colon = test system: COLO 205 colon
UACC-257 melanoma = test system: UACC-257 melanoma
OVCAR-4 ovarian = test system: OVCAR-4 ovarian
EKVX NSCLC = test system: EKVX NSCLC
T-47D breast = test system: T-47D breast
OVCAR-3 ovarian = test system: OVCAR-3 ovarian
K-562 leukemia = test system: K-562 leukemia
OVCAR-5 ovarian = test system: OVCAR-5 ovarian
HOP-62 NSCLC = test system: HOP-62 NSCLC
SNB-75 CNS = test system: SNB-75 CNS
MCF7 breast = test system: MCF7 breast
RPMI-8226 leukemia = test system: RPMI-8226 leukemia
SNB-19 CNS = test system: SNB-19 CNS
SW-620 colon = test system: SW-620 colon
MDA-MB-435 = test system: MDA-MB-435
CAKI-1 renal = test system: CAKI-1 renal
DU-145 prostate = test system: DU-145 prostate
TK-10 renal = test system: TK-10 renal
ACHN renal = test system: ACHN renal
HOP-92 NSCLC = test system: HOP-92 NSCLC
HCT-15 colon = test system: HCT-15 colon
MDA-MB-231 breast = test system: MDA-MB-231 breast
OVCAR-8 ovarian = test system: OVCAR-8 ovarian
HS 578T breast = test system: HS 578T breast
SK-MEL-28 melanoma = test system: SK-MEL-28 melanoma
CCRF-CEM leukemia = test system: CCRF-CEM leukemia
M14 melanoma = test system: M14 melanoma
A549 NSCLC = test system: A549 NSCLC
NCI/ADR-RES ovarian = test system: NCI/ADR-RES ovarian

**Q.** For `CCOC(=O)c1cnc2c(C)cc(C)cc2c1NCCCN(C)C`, which GI50 (LOX IMVI melanoma) is on record?
**A.** 2830 nM

**Q.** What about the TGI (LOX IMVI melanoma) of the same molecule?
**A.** 13.6 µM

**Q.** And the GI50 (UO-31 renal)?
**A.** 2870 nM

**Q.** What about the TGI (UO-31 renal) of the same molecule?
**A.** > 100 µM

**Q.** What about the GI50 (SF-268 CNS) of the same molecule?
**A.** 3.91 µM

**Q.** And the TGI (SF-268 CNS)?
**A.** 23.9 µM

**Q.** And the GI50 (SK-OV-3 ovarian)?
**A.** 3.98 µM

**Q.** And the TGI (SK-OV-3 ovarian)?
**A.** 32.4 µM

**Q.** And the GI50 (SR leukemia)?
**A.** 2520 nM

**Q.** And the TGI (SR leukemia)?
**A.** 8.21 µM

**Q.** What about the GI50 (U251 CNS) of the same molecule?
**A.** 4.66 µM

**Q.** And the TGI (U251 CNS)?
**A.** 76.2 µM

**Q.** What about the GI50 (RXF 393 renal) of the same molecule?
**A.** 5.86 µM

**Q.** What about the TGI (RXF 393 renal) of the same molecule?
**A.** 25 µM

**Q.** What about the GI50 (KM12 colon) of the same molecule?
**A.** 4.15 µM

**Q.** What about the TGI (KM12 colon) of the same molecule?
**A.** 27.2 µM

**Q.** And the GI50 (NCI-H226 lung)?
**A.** 4.12 µM

**Q.** What about the TGI (NCI-H226 lung) of the same molecule?
**A.** 26.8 µM

**Q.** And the GI50 (SK-MEL-5 melanoma)?
**A.** 4.38 µM

**Q.** And the TGI (SK-MEL-5 melanoma)?
**A.** 16.5 µM

**Q.** And the GI50 (A498 renal)?
**A.** 2850 nM

**Q.** And the TGI (A498 renal)?
**A.** 14.9 µM

**Q.** What about the GI50 (MOLT-4 leukemia) of the same molecule?
**A.** 4.58 µM

**Q.** What about the TGI (MOLT-4 leukemia) of the same molecule?
**A.** 33.7 µM

**Q.** And the GI50 (PC-3 prostate)?
**A.** 4.08 µM

**Q.** And the TGI (PC-3 prostate)?
**A.** 85.1 µM

**Q.** What about the GI50 (HL-60(TB) leukemia) of the same molecule?
**A.** 5.6 µM

**Q.** And the TGI (HL-60(TB) leukemia)?
**A.** 57.1 µM

**Q.** And the GI50 (HT29 colon)?
**A.** 1530 nM

**Q.** And the TGI (HT29 colon)?
**A.** 3.85 µM

**Q.** What about the GI50 (786-0 renal) of the same molecule?
**A.** 4.91 µM

**Q.** What about the TGI (786-0 renal) of the same molecule?
**A.** 25.7 µM

**Q.** And the GI50 (NCI-H23 lung)?
**A.** 4.29 µM

**Q.** And the TGI (NCI-H23 lung)?
**A.** 21.4 µM

**Q.** What about the GI50 (SN12C renal) of the same molecule?
**A.** 3.82 µM

**Q.** And the TGI (SN12C renal)?
**A.** > 100 µM

**Q.** And the GI50 (SK-MEL-2 melanoma)?
**A.** 9.7 µM

**Q.** And the TGI (SK-MEL-2 melanoma)?
**A.** 31.7 µM

**Q.** And the GI50 (NCI-H460 lung)?
**A.** 2570 nM

**Q.** And the TGI (NCI-H460 lung)?
**A.** 9.14 µM

**Q.** And the GI50 (BT-549 breast)?
**A.** 11.5 µM

**Q.** And the TGI (BT-549 breast)?
**A.** 39.9 µM

**Q.** And the GI50 (IGROV1 ovarian)?
**A.** 4.98 µM

**Q.** What about the TGI (IGROV1 ovarian) of the same molecule?
**A.** > 100 µM

**Q.** What about the GI50 (SF-295 CNS) of the same molecule?
**A.** 3.3 µM

**Q.** And the TGI (SF-295 CNS)?
**A.** 37.2 µM

**Q.** What about the GI50 (MALME-3M melanoma) of the same molecule?
**A.** 5.84 µM

**Q.** What about the TGI (MALME-3M melanoma) of the same molecule?
**A.** 21.7 µM

**Q.** What about the GI50 (HCC-2998 colon) of the same molecule?
**A.** 5.35 µM

**Q.** What about the TGI (HCC-2998 colon) of the same molecule?
**A.** 19.6 µM

**Q.** And the GI50 (HCT-116 colon)?
**A.** 2740 nM

**Q.** What about the TGI (HCT-116 colon) of the same molecule?
**A.** 21.4 µM

**Q.** What about the GI50 (NCI-H522 lung) of the same molecule?
**A.** 11.2 µM

**Q.** And the TGI (NCI-H522 lung)?
**A.** 35 µM

**Q.** And the GI50 (SF-539 CNS)?
**A.** 3.48 µM

**Q.** What about the TGI (SF-539 CNS) of the same molecule?
**A.** 14 µM

**Q.** And the GI50 (COLO 205 colon)?
**A.** 1580 nM

**Q.** And the TGI (COLO 205 colon)?
**A.** 3.55 µM

**Q.** What about the GI50 (UACC-257 melanoma) of the same molecule?
**A.** 10.2 µM

**Q.** And the TGI (UACC-257 melanoma)?
**A.** 26.2 µM

**Q.** And the GI50 (OVCAR-4 ovarian)?
**A.** 3.25 µM

**Q.** What about the TGI (OVCAR-4 ovarian) of the same molecule?
**A.** 14 µM

**Q.** And the GI50 (EKVX NSCLC)?
**A.** 4.22 µM

**Q.** What about the TGI (EKVX NSCLC) of the same molecule?
**A.** 35.6 µM

**Q.** What about the GI50 (T-47D breast) of the same molecule?
**A.** 4.73 µM

**Q.** And the TGI (T-47D breast)?
**A.** 29.4 µM

**Q.** And the GI50 (OVCAR-3 ovarian)?
**A.** 3.62 µM

**Q.** What about the TGI (OVCAR-3 ovarian) of the same molecule?
**A.** 27.5 µM

**Q.** What about the GI50 (K-562 leukemia) of the same molecule?
**A.** 4.81 µM

**Q.** What about the TGI (K-562 leukemia) of the same molecule?
**A.** 35.2 µM

**Q.** And the GI50 (OVCAR-5 ovarian)?
**A.** 4.53 µM

**Q.** What about the TGI (OVCAR-5 ovarian) of the same molecule?
**A.** 46.1 µM

**Q.** And the GI50 (HOP-62 NSCLC)?
**A.** 4.66 µM

**Q.** What about the TGI (HOP-62 NSCLC) of the same molecule?
**A.** 44.2 µM

**Q.** And the GI50 (SNB-75 CNS)?
**A.** 2740 nM

**Q.** And the TGI (SNB-75 CNS)?
**A.** 17.4 µM

**Q.** And the GI50 (MCF7 breast)?
**A.** 2780 nM

**Q.** What about the TGI (MCF7 breast) of the same molecule?
**A.** 15.7 µM

**Q.** What about the GI50 (RPMI-8226 leukemia) of the same molecule?
**A.** 17 µM

**Q.** What about the TGI (RPMI-8226 leukemia) of the same molecule?
**A.** 46.5 µM

**Q.** And the GI50 (SNB-19 CNS)?
**A.** 5.27 µM

**Q.** What about the TGI (SNB-19 CNS) of the same molecule?
**A.** 60.1 µM

**Q.** What about the GI50 (SW-620 colon) of the same molecule?
**A.** 3.43 µM

**Q.** What about the TGI (SW-620 colon) of the same molecule?
**A.** 41.7 µM

**Q.** And the GI50 (MDA-MB-435)?
**A.** 4.09 µM

**Q.** And the TGI (MDA-MB-435)?
**A.** 18.1 µM

**Q.** And the GI50 (CAKI-1 renal)?
**A.** 3.9 µM

**Q.** And the TGI (CAKI-1 renal)?
**A.** > 100 µM

**Q.** And the GI50 (DU-145 prostate)?
**A.** 3.8 µM

**Q.** What about the TGI (DU-145 prostate) of the same molecule?
**A.** 55.8 µM

**Q.** And the GI50 (TK-10 renal)?
**A.** 3.91 µM

**Q.** What about the TGI (TK-10 renal) of the same molecule?
**A.** 88 µM

**Q.** What about the GI50 (ACHN renal) of the same molecule?
**A.** 3.09 µM

**Q.** What about the TGI (ACHN renal) of the same molecule?
**A.** 40.4 µM

**Q.** And the GI50 (HOP-92 NSCLC)?
**A.** 2080 nM

**Q.** And the TGI (HOP-92 NSCLC)?
**A.** 12.5 µM

**Q.** What about the GI50 (HCT-15 colon) of the same molecule?
**A.** 3.69 µM

**Q.** What about the TGI (HCT-15 colon) of the same molecule?
**A.** 51.7 µM

**Q.** And the GI50 (MDA-MB-231 breast)?
**A.** 3.1 µM

**Q.** And the TGI (MDA-MB-231 breast)?
**A.** 20.4 µM

**Q.** What about the GI50 (OVCAR-8 ovarian) of the same molecule?
**A.** 5.67 µM

**Q.** What about the TGI (OVCAR-8 ovarian) of the same molecule?
**A.** > 100 µM

**Q.** What about the GI50 (HS 578T breast) of the same molecule?
**A.** 4.37 µM

**Q.** And the TGI (HS 578T breast)?
**A.** 28.3 µM

**Q.** And the GI50 (SK-MEL-28 melanoma)?
**A.** 13 µM

**Q.** And the TGI (SK-MEL-28 melanoma)?
**A.** 26.1 µM

**Q.** What about the GI50 (CCRF-CEM leukemia) of the same molecule?
**A.** 13.6 µM

**Q.** What about the TGI (CCRF-CEM leukemia) of the same molecule?
**A.** 62.7 µM

**Q.** What about the GI50 (M14 melanoma) of the same molecule?
**A.** 4.67 µM

**Q.** What about the TGI (M14 melanoma) of the same molecule?
**A.** 17.5 µM

**Q.** What about the GI50 (A549 NSCLC) of the same molecule?
**A.** 5.29 µM

**Q.** What about the TGI (A549 NSCLC) of the same molecule?
**A.** > 100 µM

**Q.** What about the GI50 (NCI/ADR-RES ovarian) of the same molecule?
**A.** 3.57 µM

**Q.** And the TGI (NCI/ADR-RES ovarian)?
**A.** 78.3 µM
